What was measured:
[1] = Critical micelle concentration (CMC) of bile salts; type: physicochemical; conditions: approximate values; critical micellular concentration
Source text: In some embodiments, a bile acid or salt thereof of the disclosure is characterized by a critical micelle concentration (CMC). In some embodiments, the bile acid or salt thereof aggregates and/or forms micelles at a concentration above the CMC. […] In some embodiments, the method comprises potentiometry, spectrophotometry, nuclear magnetic resonance, viscosimetry, turbidimetry, microcalorimetry, refractometry, conductimetry, cholesterol solubilization, bilirubin monoglucuronide solubilization, dye solubilization, fluorescence, capillary electrophoresis, reverse phase HPLC, freezing point depression, surface tension, and/or light scattering. In some embodiments, the CMC value is an average of at least 3-50 replicates measured by a single technique (e.g., 3-50 replicates measured by potentiometry, 3-50 replicates measured by spectrophotometry, or 3-50 replicates measured by light scattering). In some embodiments, the CMC value is an average of replicates measured by more than one technique, wherein at least 3, 4, 5, 6, 7, 8, 9, or 10 replicates are measured per technique (e.g., an average of (i) at least 3, 4, 5, 6, 7, 8, 9, or 10 replicates measured by potentiometry, (ii) at least 3, 4, 5, 6, 7, 8, 9, or 10 replicates measured by spectrophotometry, (iii) at least 3, 4, 5, 6, 7, 8, 9, or 10 replicates measured by light scattering, (iv) replicates from any pair-wise combination of (i)-(iii), or (v) replicates from a combination of (i)-(iii)).
The bile acids tested in the formulations are identified in Table 2. The bile acids selected for testing vary in the number of hydroxyl groups, stereochemistry of hydroxyl groups, and conjugation at terminal acid.

[2] = system: porcine ex vivo intestinal tissue
Protocol: (§1) A custom device confines larger tissue explants into individual compartments with donor and receiver chambers that face the apical and basolateral faces of the intestinal tissue, respectively. Porcine tissue was dissected as previously described from freshly harvested gastrointestinal tracts and jejunal segments were stored in calcium-free Krebs buffer at 4° C. for 16 hours prior to mounting between the receiver and donor compartments of a GI-ORIS device. Receiver compartments were filled with 150 μL of either 5% Bovine Serum Albumin (for Vancomycin) or 0.1% Ovalbumin (for Calcitonin, Insulin, Semaglutide) solutions prior to tissue mounting. […]
(§2) Vancomycin in receiver fluid samples was detected using LC-TOF. […] Quantification was performed relative to standard curves prepared in receiver fluid with no exposure to peptide.
(§3) Semaglutide in receiver fluid samples was detected using LC-QQQ. […] Quantification was performed relative to standard curves prepared in receiver fluid with no exposure to peptide.
(§4) Calcitonin and Insulin in receiver fluid samples (following a 1000× dilution in PBS) were detected using established protocols of commercial sandwich ELISA kits (Abcam, Waltham, MA, and Thermo Fisher Scientific, Waltham, MA). TMB chromogen absorbance was converted to peptide concentration relative to a standard curve prepared using provided standards in ELISA buffer. […]

[3] = system: porcine ex vivo intestinal tissue; assay: GI-ORIS ex vivo intestinal permeation assay
Protocol: as §1, §2, §3, §4

Compound | CMC [1] [mM] | CMC (mg/mL) [1] | enhancement in intestinal permeability of the peptides [2] | lowest concentration for which a maximal effect on vancomycin permeability was observed [3] [mg/mL]
C[C@H](CCC(=O)[O-])[C@H]1CC[C@H]2[C@@H]3[C@H](O)C[C@@H]4C[C@H](O)CC[C@]4(C)[C@H]3CC[C@]12C.[Na+] [CDCA, sodium chenodeoxycholate] | 4 | 1.6 mg/ mL mg/mL | – | –
C[C@H](CCC(=O)NCCS(=O)(=O)[O-])[C@H]1CC[C@H]2[C@@H]3[C@H](O)C[C@@H]4C[C@H](O)CC[C@]4(C)[C@H]3C[C@H](O)[C@]12C.[Na+] [STC, sodium taurocholate] | 6 | 3.2 mg/ ml mg/mL | greatest enhancement in intestinal permeability | –
C[C@H](CCC(=O)[O-])[C@H]1CC[C@H]2[C@@H]3[C@H](O)C[C@@H]4C[C@H](O)CC[C@]4(C)[C@H]3C[C@H](O)[C@]12C.[Na+] [CHA, sodium cholate] | 11 | 4.5 mg/ mL mg/mL | – | –
C[C@H](CCC(=O)NCC(=O)[O-])[C@H]1CC[C@H]2[C@@H]3CC[C@@H]4C[C@H](O)CC[C@]4(C)[C@H]3C[C@H](O)[C@]12C.[Na+] [GDCA, sodium glycodeoxycholate] | 2 | 0.9 mg/ mL mg/mL | – | –
C[C@H](CCC(=O)NCCS(=O)(=O)[O-])[C@H]1CC[C@H]2[C@@H]3[C@H](O)C[C@@H]4C[C@H](O)CC[C@]4(C)[C@H]3CC[C@]12C.[Na+] [TCDCA, sodium taurochenodeoxycholate] | 4 | 2.1 mg/ mL mg/mL | – | –
C[C@H](CCC(=O)NCC(=O)[O-])[C@H]1CC[C@H]2[C@@H]3[C@H](O)C[C@@H]4C[C@H](O)CC[C@]4(C)[C@H]3C[C@H](O)[C@]12C.[Na+] [GCA, sodium glycocholate] | 11 | 5.4 mg/ mL mg/mL | – | 128
C[C@H](CCC(=O)NCCS(=O)(=O)[O-])[C@H]1CC[C@H]2[C@@H]3CC[C@@H]4C[C@H](O)CC[C@]4(C)[C@H]3C[C@H](O)[C@]12C.[Na+] [TDCA, sodium taurodeoxycholate] | 3 | 1.6 mg/ mL mg/mL | – | –
C[C@H](CCC(=O)NCC(=O)[O-])[C@H]1CC[C@H]2[C@@H]3[C@H](O)C[C@@H]4C[C@H](O)CC[C@]4(C)[C@H]3CC[C@]12C.[Na+] [GCDCA, sodium glycochenodeoxycholate] | 2 | 0.9 mg/ mL mg/mL | – | –
C[C@H](CCC(=O)[O-])[C@H]1CC[C@H]2[C@@H]3CC[C@@H]4C[C@H](O)CC[C@]4(C)[C@H]3C[C@H](O)[C@]12C.[Na+] [DCA, sodium deoxycholate] | 5 | 2.0 mg/ ml mg/mL | – | –

— patent US20260191927A1, “FORMULATION OF THERAPEUTIC AGENTS FOR IMPROVED PERMEATION” (priority 2023, published 2026)
